Experimental data as given in US10221163B2 (priority 2015, dated 2019).
Like-named read-outs stand apart in the source and are kept apart here.

Legend:
[1] = tested on: Pseudomonas aeruginosa MB9798 vs MB9799
In short: (§1)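 P. aeruginosa PAO1-derived IMP-1 strains, efflux+ MB9798 and efflux− MB9799, tested by standard microbroth MIC with imipenem and/or ceftazidime fixed, usually at CLSI breakpoint, plus fixed class A/C β-lactamase inhibitor against AmpC. Inhibitor titrated; concentration restoring susceptibility recorded; MB9798/MB9799 fold difference indicates efflux.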

VIM-1 = VIM-1 (Pseudomonas aeruginosa (strain ATCC 15692 / DSM 22644 / CIP 104116 / JCM 14847 / LMG 12228 / 1C / PRS 101 / PAO1), UniProt A0A0F7KYQ8); test: biochemical; conditions: CCF2-FA substrate, 30 pM enzyme, 2 hours at 25° C.
In short: (§2)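 IC50 values derive from 4-parameter fits of percent inhibition against inhibitor concentration on semi-log axes. Activity was monitored by fluorescence with the CCF2-FA substrate after a 2-hour, 25° C incubation of compound, enzyme and substrate.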

NDM-1 = NDM-1 (Klebsiella pneumoniae, UniProt C7C422); test: biochemical; assay type: biochemical; conditions: fluorescence assay, CCF2-FA substrate, 1 pM enzyme, 2 hours at 25° C.; read-out: NDM-1 IC50
In short: as §2

IMP-1 = IMP-1 (Serratia marcescens, UniProt P52699); test: biochemical; assay type: biochemical; conditions: CCF2-FA substrate, 2 pM enzyme, 2 hours at 25° C.
In short: as §2

[2] = tested on: Pseudomonas aeruginosa efflux+ (MB9798), IMP-1; assay type: cell-based; parameters: Concentration of metallo-β-lactamase inhibitor which restores susceptibility of efflux + (MB9798) strain to imipenem: unit not given here; conditions: C, D serine β-lactamase inhibitor closely related to relebactam; for P. aeruginosa expressing IMP-1, efflux + (MB9798) MITC95: concentration restoring susceptibility to imipenem at 2 μg/mL in the presence of a class A; for Concentration of metallo-β-lactamase inhibitor which restores susceptibility of efflux + (MB9798) strain to imipenem: imipenem at 2 μg/mL, in the presence of a class A
In short: as §1

[3] = tested on: Serratia marcescens expressing IMP-1 (CL5741); assay type: cell-based; conditions: for Serratia marcescens expressing IMP-1 (CL5741) MITC95: with imipenem 1 μg/ml, 95% inhibition of bacterial growth; for Serratia marcescens MITC95: IMP-1 strain CL5741, with imipenem 1 μg/ml, 95% inhibition of growth
In short: (§3)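 Growth by absorbance after 22–24 h at 35°C defined the read-out, with imipenem fixed at 1 μg/ml alongside compound. Inocula came from overnight blood-agar colonies at 35°C, resuspended in saline and diluted 1:100 in 1.1×CAMHB.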

[4] = tested on: Klebsiella pneumoniae expressing VIM-1 (IHMA599644); assay type: cell-based; conditions: for Klebsiella pneumoniae expressing VIM-1 (IHMA599644) MITC95: with imipenem 1 μg/ml, 95% inhibition of bacterial growth; for Klebsiella pneumoniae MITC95: VIM-1 strain IHMA599644, with imipenem 1 μg/ml, 95% inhibition of growth
In short: as §3

[5] = tested on: Escherichia coli expressing NDM-1 (CLB30005, CLB30016); assay type: cell-based; conditions: with imipenem 1 μg/ml; for Escherichia coli expressing NDM-1 (CLB30016) MITC95: 95% inhibition of bacterial growth; for Escherichia coli MITC95: NDM-1 strain, 95% inhibition of growth
In short: as §3

[6] = tested on: Pseudomonas aeruginosa efflux− (MB9799), IMP-1; assay type: cell-based; conditions: C, D serine β-lactamase inhibitor closely related to relebactam; for P. aeruginosa expressing IMP-1, efflux − (MB9799) MITC95: concentration restoring susceptibility to imipenem at 2 μg/mL in the presence of a class A; for Concentration of metallo-β-lactamase inhibitor which restores susceptibility of efflux − (MB9799) strain to imipenem: imipenem at 2 μg/mL, in the presence of a class A
In short: as §1

[7] = ratio MITC95 PA_9798/MITC95 PA_9799
[8] = fluorescence assay, read-out: VIM-1 IC50
[9] = fluorescence assay, read-out: IMP-1 IC50
[10] = fold difference between efflux+ (MB9798) and efflux− (MB9799) strains, imipenem at 2 μg/mL

Sequence of IMP-1 (P52699 whole entry, looked up, species assumed): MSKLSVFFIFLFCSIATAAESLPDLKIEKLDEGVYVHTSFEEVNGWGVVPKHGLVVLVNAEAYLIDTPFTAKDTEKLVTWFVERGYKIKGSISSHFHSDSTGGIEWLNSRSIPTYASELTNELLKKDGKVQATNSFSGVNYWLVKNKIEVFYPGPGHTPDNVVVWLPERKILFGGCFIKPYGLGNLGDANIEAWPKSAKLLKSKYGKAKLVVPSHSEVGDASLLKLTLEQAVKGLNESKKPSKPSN
Sequence of NDM-1 (C7C422 whole entry, looked up, species assumed): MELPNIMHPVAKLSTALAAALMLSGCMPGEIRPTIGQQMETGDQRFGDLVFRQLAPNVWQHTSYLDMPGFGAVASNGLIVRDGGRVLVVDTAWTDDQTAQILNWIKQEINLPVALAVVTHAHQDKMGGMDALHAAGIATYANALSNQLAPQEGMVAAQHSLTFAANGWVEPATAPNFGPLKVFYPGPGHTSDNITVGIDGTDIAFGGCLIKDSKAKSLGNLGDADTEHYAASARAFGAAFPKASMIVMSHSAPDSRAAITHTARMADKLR

| Compound | Efflux ratio [1, 7] | IC50 (VIM-1; [8]) | IC50 (NDM-1) | IC50 (IMP-1; [9]) | P. aeruginosa expressing IMP-1, efflux + (MB9798) MITC95 [2] | Serratia marcescens expressing IMP-1 (CL5741) MITC95 [3] | Klebsiella pneumoniae expressing VIM-1 (IHMA599644) MITC95 [4] | Escherichia coli expressing NDM-1 (CLB30016) MITC95 [5] | P. aeruginosa expressing IMP-1, efflux − (MB9799) MITC95 [6] | Efflux ratio [1, 10] | Concentration of metallo-β-lactamase inhibitor which restores susceptibility of efflux + (MB9798) strain to imipenem [2] | Serratia marcescens MITC95 [3] | Klebsiella pneumoniae MITC95 [4] | Escherichia coli MITC95 [5] | Concentration of metallo-β-lactamase inhibitor which restores susceptibility of efflux − (MB9799) strain to imipenem [6] | IC50 (VIM-1; VIM-1 IC50, fluorescence assay) | IC50 (IMP-1; IMP-1 IC50, fluorescence assay) |
| --- | --- | --- | --- | --- | --- | --- | --- | --- | --- | --- | --- | --- | --- | --- | --- | --- | --- |
| Nc1nc2c(-c3ccc(S(=O)(=O)N4CCNC(=O)C4)c(S(N)(=O)=O)c3-c3nnn[nH]3)cccc2s1 [Example 28, 3-(2-amino-1,3-benzothiazol-4-yl)-6-[(3-oxopiperazin-1-yl)sulfonyl]-2-(1H-tetrazol-5-yl)benzenesulfonamide] | 4.00 | 0.726 nM | 0.646 nM | 0.646 nM | 12.5 µM | 6.25 µM | 12.5 µM | 25 µM | 3.125 µM | – | – | – | – | – | – | – | – |
| CN(C[C@@H]1CCCN1)S(=O)(=O)c1ccc(-c2cccc3sc(N)nc23)c(-c2nnn[nH]2)c1S(N)(=O)=O.O=CO [Example 121, (S)-2-((4-(2-aminobenzo[d]thiazol-4-yl)-N-methyl-2-sulfamoyl-3-(1H-tetrazol-5-yl)phenylsulfonamido)methyl)pyrrolidin-1-ium formate] | 4.00 | 7.08 nM | 1.42 nM | 2.84 nM | 12.5 µM | 3.125 µM | 12.5 µM | 6.25 µM | 3.125 µM | – | – | – | – | – | – | – | – |
| NCCNC(=O)c1cc(-c2ccc(S(=O)(=O)NCCN)c(S(N)(=O)=O)c2-c2nn[nH]n2)ccc1N [Example 451, 4-Amino-N-(2-aminoethyl)-4′-(N-(2-aminoethyl)sulfamoyl)-3′-sulfamoyl-2′-(2H-tetrazol-5-yl)-[1,1′-biphenyl]-3-carboxamide] | – | 0.557 nM | 1.7 nM | 4.02 nM | – | – | – | – | – | 2.00 | 1.563 | 0.7813 µM | 0.7813 µM | 0.7813 µM | 0.7813 | – | – |
| C[C@@H](N)CNS(=O)(=O)c1ccc(-c2cccc3sc(N)nc23)c(-c2nn[nH]n2)c1S(N)(=O)=O [Example 390, 4-(2-amino-1,3-benzothiazol-4-yl)-N^1-[(2R)-2-aminopropyl]-3-(2H-tetrazol-5-yl)benzene-1,2-disulfonamide] | – | – | 0.0605 nM | – | – | – | – | – | – | 0.50 | 0.7813 | 1.563 µM | 3.125 µM | 3.125 µM | 1.563 | 0.33 nM | 0.341 nM |
| NCc1nc2cc(-c3ccc(S(=O)(=O)N[C@@H](CN)CO)c(S(N)(=O)=O)c3-c3nn[nH]n3)ccc2s1 [Example 475, (S)-N1-(1-amino-3-hydroxypropan-2-yl)-4-(2-(aminomethyl)benzo[d]thiazol-5-yl)-3-(2H-tetrazol-5-yl)benzene-1,2-disulfonamide] | – | 0.0869 nM | 0.0604 nM | 0.13 nM | – | – | – | – | – | 1.00 | 0.7813 | 1.563 µM | 1.563 µM | 0.7813 µM | 0.7813 | – | – |
| CC1(NS(=O)(=O)c2ccc(-c3cccc4sc(N)nc34)c(-c3nnn[nH]3)c2S(N)(=O)=O)CCCNC1 (stereo not drawn) [Example 57, 4-(2-amino-1,3-benzothiazol-4-yl)-N1-(3-methylpiperidin-3-yl)-3-(1H-tetrazol-5-yl)benzene-1,2-disulfonamide] | 1.00 | 0.355 nM | 0.0853 nM | 0.554 nM | 3.125 µM | 6.25 µM | 3.125 µM | 3.125 µM | 3.125 µM | – | – | – | – | – | – | – | – |
| Nc1nc2c(-c3ccc(S(=O)(=O)N4CC[C@@H](F)[C@H](N)C4)c(S(N)(=O)=O)c3-c3nn[nH]n3)cccc2[nH]1 [Example 205, 3-(2-amino-1H-benzo[d]imidazol-4-yl)-6-(((3R,4R)-3-amino-4-fluoropiperidin-1-yl)sulfonyl)-2-(2H-tetrazol-5-yl)benzenesulfonamide] | 8.00 | 3.63 nM | 1.2 nM | 5.89 nM | 12.5 µM | 3.125 µM | 3.125 µM | 1.563 µM | 1.563 µM | – | – | – | – | – | – | – | – |
| Nc1nc2c(-c3ccc(S(=O)(=O)N[C@@H]4CCNC4)c(S(N)(=O)=O)c3-c3nn[nH]n3)cccc2[nH]1 [Example 161, 4-(2-amino-1H-benzo[d]imidazol-4-yl)-N^1—((R)-pyrrolidin-3-yl)-3-(2H-tetrazol-5-yl)benzene-1,2-disulfonamide] | 0.78 | 0.106 nM | 0.0314 nM | 0.401 nM | 0.3993 µM | 0.5295 µM | 0.8542 µM | 0.2995 µM | 0.5139 µM | – | – | – | – | – | – | – | – |
| NC[C@@H](O)CNS(=O)(=O)c1ccc(-c2ccc(N)nc2)c(-c2nn[nH]n2)c1S(N)(=O)=O [Example 303, (R)-N1-(3-amino-2-hydroxypropyl)-4-(6-aminopyridin-3-yl)-3-(2H-tetrazol-5-yl)benzene-1,2-disulfonamide] | 1.00 | – | 0.255 nM | 0.536 nM | 0.7813 µM | – | – | – | 0.7813 µM | – | – | 0.5859 µM | 1.953 µM | 0.2197 µM | – | 0.169 nM | – |
